These results are taken from patent publication USH1992H, “Metalloproteinase inhibitors, pharmaceutical compositions containing them, and their pharmaceutical uses” (Agouron Pharmaceuticals, Inc., priority 1999, dated 2001).

Common to all, as to type: biochemical
Assay [1] has as its target T1, human stromelysin-1 (Strom) (Homo sapiens, UniProt P08254).
T1 construct: The catalytic domain of human stromelysin (Sln) was obtained by expression and purification of a C-terminally truncated prostromelysin-1; made in house; host or cells: E. coli BL21
In words: Inhibition of stromelysin (Strom) - fluorogenic MCA peptide substrate hydrolysis. The following applies: catalytic domain; Ki,app; MCA peptide substrate 10 μM, pH 7.5, 37° C., 2% DMSO; enzyme 1.5 nM. Here is the method: The catalytic domain of human stromelysin (Sln) was obtained by expression and purification of a C-terminally truncated prostromelysin-1 from E. coli host BL21 (see Marcy et al. Biochem., 1991, 30, 6476, which article is entirely incorporated herein by reference). The subsequent activation of the mature form (Sln) was completed with 2mM APMA for 1 hour at 37° C., followed by separation using a sizing column.
(§1) Assays were performed in assay buffer (50 mM Tricine pH 7.5, 200 mM sodium chloride, 10 mM calcium chloride, 0.5 mM zinc acetate containing 2% dimethyl sulfoxide (DMSO)), once the substrate and inhibitor were diluted into it. Stock solutions of inhibitors were prepared in 100 % DMSO. Stock solutions of the substrate were prepared in 100 % DMSO at a concentration of 6 mM.
(§2) The assay method was based on the hydrolysis of MCA-Pro-Leu-Gly-Leu-DPA-Ala-Arg-NH2 (American Peptide Co.) at 37° C. (see Knight, C. G. et al., FEBS, 1992, 296, 263-266, which article is entirely incorporated herein by reference). The fluorescence changes were monitored with a Perkin-Elmer LS-50B fluorimeter using an excitation wavelength of 328 nm and an emission wavelength of 393 nm. The substrate concentration used in the assays was 10 μM. The inhibitor was diluted into the assays from a solution in 100 % DMSO, and controls substituted an equal volume of DMSO so that the final DMSO concentration from inhibitor and substrate dilution in all assays was 2%. […] Proper determination of steady-state rates of substrate cleavage required assay lengths of 60 minutes to allow for complete equilibration of the enzyme-inhibitor complex.
(§3) The Km for the MCA peptide substrate with the matrix metalloproteinases is quite high and exceeds its solubility under assay conditions. Consequently, the apparent Ki (Ki, app) was determined to describe the strength of inhibition. However, in this case, Ki,app would be essentially equal to Ki since [S]<<Km. For the determination of Ki,app, the concentration of the inhibitor was varied at a constant and low concentration of substrate, and the steady-state rates of fluorescence change were determined. In most cases, absorptive quench due to the presence of ligand was not observed. For slow-binding inhibitors, onset of inhibition curves were collected for at least 45 minutes so that equilibrium was established. Steady-state rates of fluorescence change were obtained by fitting a curve to an equation for a single exponential decay containing a linear phase. The fitted value of the linear phase was taken as the steady-state rate. The steady-state rates were fitted to the Michaelis equation describing competitive inhibition by non-linear methods. Data resulting from tight-binding inhibition was analyzed, and Ki,app determined by fitting the data to the tight-binding equation of Morrison (Biochem. Biophys. Acta, vol. 185, pp. 269-286 (1969), which article is entirely incorporated herein by reference) by non-linear methods.
(§4) All Ki values are in nM units.

The target in assay [2] is T2, human collagenase-1 (HFC) (Homo sapiens, UniProt P03956).
T2 construct: the fibroblast collagenase-1 catalytic domain (HFC) was released; ubiquitin (fusion) (cleaved yes); made in house; host or cells: E. coli
T2 sequence (P03956 100-269 limits assumed): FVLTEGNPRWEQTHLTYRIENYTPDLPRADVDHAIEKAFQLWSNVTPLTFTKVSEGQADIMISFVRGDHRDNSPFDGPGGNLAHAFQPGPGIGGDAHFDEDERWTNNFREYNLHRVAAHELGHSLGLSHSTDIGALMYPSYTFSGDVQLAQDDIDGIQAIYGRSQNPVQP
Nature of the assay: Inhibition of collagenase-1 (HFC) - fluorogenic MCA peptide substrate hydrolysis. The following applies: catalytic domain; Ki,app; MCA peptide substrate 10 μM, pH 7.5, 37° C., 2% DMSO.
Description: The catalytic domain of human collagenase-1 was expressed as a fusion protein with ubiquitin in E. coli (see Gehring, E. R., J. Biol. Chem., 1995, 270, 22507, which article is entirely incorporated herein by reference). After purification of the fusion protein, the fibroblast collagenase-1 catalytic domain (HFC) was released either by treatment with purified, active stromelysin-1 (1:50 w/w ratio), which generated nearly 100% N-terminal Phe1, or by autoprocessing the concentrated collagenase-1 fusion and then incubating at 37° C. for 1 hour. Final purification was completed using zinc chelate chromatography.
as §1, §2, §3, §4

Another assay deals with T3, human matrilysin (Matr) (Homo sapiens, UniProt P09237).
T3 construct: the catalytic domain was liberated by treatment with 2mM APMA; ubiquitin (fusion) (cleaved yes); made in house; host or cells: E. coli
T3 sequence (P09237 95-267): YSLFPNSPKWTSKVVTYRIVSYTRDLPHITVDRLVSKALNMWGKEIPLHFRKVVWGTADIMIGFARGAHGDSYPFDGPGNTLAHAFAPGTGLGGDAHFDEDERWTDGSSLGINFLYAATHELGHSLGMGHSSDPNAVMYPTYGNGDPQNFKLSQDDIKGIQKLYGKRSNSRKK
In words: Inhibition of matrilysin (Matr) - fluorogenic MCA peptide substrate hydrolysis. The settings on record: catalytic domain; Ki,app; MCA peptide substrate 10 μM, pH 7.5, 37° C., 2% DMSO. As to the method: Human matrilysin (Matr) was expressed in E. coli as a fusion protein with ubiquitin. After purification of the matrilysin/ubiquitin fusion from inclusion bodies, the catalytic domain was liberated by treatment with 2mM APMA at 37 ° C. for 2 hours. Final purification was complete using copper chelate chromatography.
as §1, §2, §3, §4

The target in assay [3] is human gelatinase A (Gel A). In words: Inhibition of gelatinase A (Gel A) - fluorogenic MCA peptide substrate hydrolysis. The following applies: catalytic and fibronectin-like portion; Ki,app; MCA peptide substrate 10 μM, pH 7.5, 37° C., 2% DMSO; enzyme 60 pM. As to the method: The catalytic and fibronectin-like portion of human progelatinase A (GelA) was expressed as a fusion protein with ubiquitin in E. Coli. Assays were carried out on autocatalytically activated material.
as §1, §2, §3, §4

Assay [4] has as its target human collagenase-3 (Coll-3). Nature of the assay: Inhibition of collagenase-3 (Coll-3) - fluorogenic MCA peptide substrate hydrolysis. The following applies: catalytic domain; Ki,app; MCA peptide substrate 10 μM, pH 7.5, 37° C., 2% DMSO. Here is the method:
The propeptide and catalytic domain of human collagenase-3 (Coll3) was expressed in E. coli as an N-terminal fusion protein with ubiquitin. After purification of the fusion from inclusion bodies, the catalytic domain was liberated by treatment with 2mM APMA at room temperature overnight. Final purification was completed using copper chelate chromatography.
as §1, §2, §3, §4

T1 sequence (P08254 100-272 limits assumed): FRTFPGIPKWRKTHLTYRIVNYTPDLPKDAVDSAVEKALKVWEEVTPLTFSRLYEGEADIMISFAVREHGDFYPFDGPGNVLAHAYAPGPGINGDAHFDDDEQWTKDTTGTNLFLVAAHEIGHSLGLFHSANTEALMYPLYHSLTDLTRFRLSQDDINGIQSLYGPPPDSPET

Turning to `O=C(NO)[C@H]1CCCCN1S(=O)(=O)c1ccc(Oc2ccccc2)cc1` [Example 7, 2(R)-1-(4-Phenoxy-benzenesulfonyl)-N-hydroxy-piperidine-2-carboxamide], the results for the Ki (in assay [1]; in assay [2]; at human matrilysin (Matr)) were 0.07 nM, 6.6 nM and 55 nM, respectively.
On to `O=C(NO)[C@H]1CCCCN1S(=O)(=O)c1ccc(Oc2ccc(Br)cc2)cc1` [Example 5, 2(R)-1-[4-(4-Bromophenoxy)benzenesulfonyl]-N-hydroxypiperidine-2-carboxamide], for which the Ki in assay [1] is 0.04 nM; in assay [2] it was 15 nM; on human matrilysin (Matr), 44 nM; in assay [3], 0.018 nM; in assay [4], 0.014 nM.
For the molecule `CC(C)[C@H](C(=O)NO)N(Cc1cccnc1)S(=O)(=O)c1ccc(Oc2ccccc2)cc1` [Example 3(b), 2(R)-N-hydroxy-2-[(4-phenoxy)benzenesulfonyl][(pyridin-3-yl)methyl]amino-3-methylbutanamide], the values for the Ki in assay [1], in assay [2] and in assay [4] were 1.2 nM, 6 nM and 0.05 nM, respectively.
In the case of `CCOP(=O)(CN(CC(=O)O)S(=O)(=O)c1ccc(Oc2ccccc2)cc1)OCC` [Example 4(a), 2(R)-2-[(diethylphosphonomethyl)(4-phenoxybenzenesulfonyl)-amino]-acetic acid], the Ki in assay [1] was found to be 27000 nM; in assay [4], 740 nM.
Regarding `O=C(O)[C@H]1CCCCN1S(=O)(=O)c1ccc(Oc2ccc(-c3ccccc3)cc2)cc1` [Example 6(a)], the Ki in assay [1] stood at 2190 nM; in assay [2], 125000 nM; at human matrilysin (Matr) it was 72000 nM; in assay [3], 64 nM; in assay [4], 212 nM.
`O=C(O)[C@H]1CCCCN1S(=O)(=O)c1ccc(Oc2ccc(Br)cc2)cc1` [Example 5(a)]: the Ki in assay [1] is 16000 nM; in assay [2] it was 481000 nM; on human matrilysin (Matr), 540000 nM; in assay [3], 192 nM; in assay [4] it was 448 nM.
For the molecule `O=C(NO)[C@H]1CCCCN1S(=O)(=O)c1ccc(Oc2ccc(-c3ccccc3)cc2)cc1` [Example 6, 2(R)-1-[4-(Biphenyl-4-yl)oxybenzenesulfonyl]-N-hydroxy-piperidine-2-carboxamide], the Ki in assay [1] is 0.06 nM; in assay [2] it was 8.8 nM; on human matrilysin (Matr) it was 6.7 nM; in assay [3], 0.014 nM.
Turning to `CCOP(=O)(CN(CC(=O)NO)S(=O)(=O)c1ccc(Oc2ccccc2)cc1)OCC` [Example 4, 2(R)-2-[(diethylphosphonomethyl)(4-phenoxybenzenesulfonyl)amino]-N-hydroxyacetamide], the Ki came to 0.23 nM in assay [1], 27 nM in assay [2] and 0.09 nM in assay [4].
As for `CC(C)[C@H](C(=O)NO)N(Cc1cccnc1)S(=O)(=O)c1ccc(Oc2ccc(Br)cc2)cc1` [Example 3(a), 2(R)-2-[4-(4-Bromophenoxy)benzenesulfonyl][(pyridin-3-yl)methyl]amino-N-hydroxy-3-methylbutanamide], the Ki was determined as 0.35 nM in assay [1], 7.6 nM in assay [2] and 0.02 nM in assay [4].
